Laboratory results as given in PubChem BioAssay (NCI).
Several values for one entry are separate records, joined by “and”; a condition that tells them apart may be missing. Equal values may be shown once.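 Briefly, cells in 96-well plates were exposed to five compound concentrations for 48 h, and endpoints were estimated by linear interpolation. GI50: concentration for 50% inhibition of growth. At the TGI there is no net growth.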

Columns and labels:
Test in all cases: inhibition of tumour cell growth, NCI panel, 48 h
[1] = test system: 786-0 renal
[2] = test system: BT-549 breast
[3] = test system: HOP-62 NSCLC
[4] = test system: M14 melanoma
[5] = test system: MDA-MB-435
[6] = test system: OVCAR-5 ovarian
[7] = test system: SK-MEL-2 melanoma
[8] = test system: SK-MEL-28 melanoma
[9] = test system: SK-OV-3 ovarian
[10] = test system: SNB-19 CNS

SMILES | GI50 [1] | TGI [1] | GI50 [2] | GI50 [3] | TGI [3] | GI50 [4] | TGI [4] | GI50 [5] | GI50 [6] | TGI [6] | GI50 [7] | TGI [7] | TGI [8] | GI50 [9] | TGI [9] | GI50 [10] | TGI [10] | TGI [2] | TGI [5] | GI50 [8] [µM]
CN(C)c1ccc(/C=C(\C#N)c2ccccc2)cc1 | 0.56 µM and 0.763 µM and 0.437 µM | > 100 µM and 58.6 µM and 30.2 µM | 0.121 µM and 0.794 µM and 0.621 µM | 1.37 µM and 0.993 µM and 0.567 µM | 59.9 µM and > 100 µM | 0.329 µM and 0.344 µM and 0.304 µM | > 100 µM | 0.0424 µM and 0.192 µM and 0.13 µM | 4.51 µM and 17.2 µM and 10.3 µM | > 100 µM | 0.453 µM and 0.465 µM | > 100 µM | > 100 µM | 0.421 µM and 0.622 µM and 0.641 µM | > 100 µM | 0.481 µM and 0.68 µM and 0.92 µM | > 100 µM |  |  | 
CC(=O)N(C)c1cc(NCc2ccccc2)ccc1OCc1ccccc1 |  | 76.6 µM |  |  | > 100 µM |  | 50.5 µM |  |  | 38.3 µM |  | 30.8 µM | 35.4 µM |  | 43.1 µM |  | 35.8 µM | 40.3 µM | 32.2 µM | 
O=C(O)c1ccc(NCc2nc3ccccc3[nH]2)cc1 | > 100 µM | > 100 µM | > 100 µM | > 100 µM | > 100 µM | > 100 µM | > 100 µM | > 100 µM | > 100 µM | > 100 µM | > 100 µM | > 100 µM | > 100 µM | > 100 µM | > 100 µM | > 100 µM | > 100 µM | > 100 µM | > 100 µM | > 100
CC(=O)OC1CC2C(C)(C)CCC[C@]2(C)C2=C1C(O)=C(C(C)C)C(=O)C2=O (stereo partly specified) | 0.813 µM | 2.91 µM | 1.16 µM | 2.13 µM | 4.47 µM | 0.442 µM | 1.83 µM | 0.335 µM | 1.44 µM | 3.79 µM | 0.356 µM | 1.39 µM | 2.16 µM | 2.59 µM | > 28.4 µM | 0.646 µM | > 46 µM | 3.34 µM | 1.72 µM | 0.68
C[C@@H]1CC[C@H]2[C@@H](C)C(OC/C=C/COC3O[C@@H]4O[C@@]5(C)CC[C@H]6[C@H](C)CC[C@@H]([C@H]3C)[C@@]46OO5)O[C@@H]3O[C@@]4(C)CC[C@@H]1[C@]32OO4 (stereo partly specified) | 0.0168 µM | 18.6 µM | 0.0304 µM | 0.0791 µM | 34.2 µM | 0.0265 µM | 19.1 µM | 0.0161 µM | < 0.01 µM | 0.257 µM | 0.773 µM | > 100 µM | > 100 µM | 19.5 µM | > 100 µM | 5.19 µM | > 100 µM | > 100 µM | 25.1 µM | 1.32
CS(=O)(=O)O[C@H]1C(=O)N(c2cc3c4ccccc4ccc3c3ccccc23)[C@@H]1c1ccccn1 | 0.348 µM | 31.7 µM | 0.501 µM | 0.612 µM | > 100 µM | 0.317 µM | 5.23 µM | 0.217 µM | 0.711 µM | > 100 µM | 0.687 µM | > 100 µM | > 100 µM | 0.627 µM | > 100 µM | 0.749 µM | > 100 µM | 9.79 µM | 0.597 µM | 0.783
C=C1C[C@@H](O)[C@@H](Br)C(C)(C)[C@]12CCC(C)(Br)C(Cl)C2 (stereo partly specified) | 17.9 µM | > 50 µM and 33.7 µM | 18.9 µM | 15.4 µM | > 50 µM and 35.9 µM | 17.9 µM | > 50 µM and 34.6 µM | 18 µM | 1.23 µM | 26.6 µM and 8.52 µM | 16.5 µM | > 50 µM and 30.4 µM | > 50 µM and 36.8 µM | 24 µM | > 50 µM and 64.6 µM | 17.6 µM | > 50 µM and 33.2 µM | > 50 µM and 38.3 µM | > 50 µM and 35.8 µM | 18
CON=C1C[C@]2(C[C@@H]3C[C@@H](C/C=C(\C)C[C@@H](C)/C=C/C=C4\CO[C@@H]5[C@H](O)C(C)=C[C@@H](C(=O)O3)[C@]45O)O2)O[C@H](/C(C)=C/C(C)C)[C@H]1C | 14.2 µM | 28.4 µM | 18 µM | 15.5 µM | 29 µM | 16.1 µM | 33.1 µM | 7.98 µM | 18.1 µM | 37.4 µM | 15.4 µM | 32.5 µM | 31.7 µM | 15.2 µM | 28.5 µM | 15.7 µM | 35.3 µM | 33.4 µM | 21.5 µM | 17.5
Nc1nc(=S)c2ncn(C3OC(CO)C(O)C3O)c2[nH]1 (stereo unspecified) | 0.348 µM |  | 2.12 µM | 0.273 µM | 3.98 µM | 0.304 µM | 3.13 µM | 1.02 µM | 0.827 µM | > 100 µM | 10.5 µM | > 100 µM | > 100 µM | 0.379 µM | 7.76 µM | 33.1 µM | > 100 µM | > 100 µM | > 69.6 µM | 13.7
Cc1ccc(/C=C(/C#N)n2nnc3ncccc32)cc1 | 2.99 µM | 16.4 µM | 2.46 µM | 3.17 µM | 12.9 µM | 2.89 µM | 17.7 µM | 0.378 µM | 2.49 µM | 10.1 µM | 2.47 µM | 8.66 µM | 31.3 µM | 3.9 µM | > 100 µM | 3.43 µM | 16.8 µM | 19.7 µM | 13.4 µM | 2.17
O=C1CC(C(=O)O)Cc2c(Br)ccc(O)c21 (stereo unspecified) |  | > 100 µM |  |  | > 100 µM |  | > 100 µM |  |  | > 100 µM |  | > 100 µM | > 100 µM |  | > 100 µM |  | > 100 µM | > 100 µM | > 100 µM | 
NS(=O)(=O)c1ccc(N=Nc2c(O)[nH]c3ccc(C(=O)NCCc4cnc[nH]4)cc23)cc1 | > 25 µM | > 25 µM | > 25 µM | > 25 µM | > 25 µM | > 25 µM | > 25 µM | > 25 µM | > 25 µM | > 25 µM | > 25 µM | > 25 µM | > 25 µM | > 25 µM | > 25 µM | > 25 µM | > 25 µM | > 25 µM | > 25 µM | > 25
O=C(COc1cccc(/C=C2\COc3ccccc3C2=O)c1)c1ccccc1 | 5.85 µM | 19 µM | 5.3 µM | 5.24 µM | 18.2 µM | 3.12 µM | 14 µM | 3.14 µM | 2.8 µM | 7.23 µM | 2.75 µM | 9.68 µM | 10.7 µM | 15.2 µM | 29 µM | 11.8 µM | 24 µM | 22.2 µM | 10.7 µM | 3.24
